{"source": "patent US5849782A", "about": "“Methods of inhibiting neurodegenerative diseases” (The General Hospital Corporation, priority 1996, dated 1998)", "key": {"[1]": {"target": "T1, MAO-B (Mus musculus, UniProt Q8BW75)", "T1 construct": "Crude mitochondrial preparations were obtain from the forebrains; from tissue; host or cells: mouse forebrain, crude mitochondrial fraction (P2 pellet on a discontinuous Ficoll gradient)", "T1 sequence (Q8BW75 1-520)": "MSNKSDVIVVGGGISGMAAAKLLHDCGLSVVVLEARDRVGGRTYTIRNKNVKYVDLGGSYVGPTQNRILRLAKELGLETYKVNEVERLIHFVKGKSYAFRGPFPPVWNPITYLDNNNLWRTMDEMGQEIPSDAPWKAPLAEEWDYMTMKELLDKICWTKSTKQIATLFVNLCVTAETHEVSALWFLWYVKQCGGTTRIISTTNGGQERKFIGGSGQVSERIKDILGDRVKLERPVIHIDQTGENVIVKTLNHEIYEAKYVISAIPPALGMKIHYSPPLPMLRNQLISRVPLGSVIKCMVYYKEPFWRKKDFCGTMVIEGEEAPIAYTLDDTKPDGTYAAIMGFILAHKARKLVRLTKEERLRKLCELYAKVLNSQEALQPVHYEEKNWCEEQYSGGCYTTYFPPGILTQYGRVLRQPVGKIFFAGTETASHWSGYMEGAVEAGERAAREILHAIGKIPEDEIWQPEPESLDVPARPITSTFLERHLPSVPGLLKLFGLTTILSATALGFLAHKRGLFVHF", "assay": "MAO-B activity in forebrain mitochondrial fractions of treated mice", "assay_type": "biochemical", "conditions": "four doses at 2-h intervals: deprenyl 10 mg/kg i.p. or 7-NI 50 mg/kg s.c.; vehicle 5.79±0.44"}, "[2]": {"target": "T1, MAO-B", "assay": "MAO-B activity in vitro, mitochondrial fraction of mouse forebrain", "assay_type": "biochemical", "conditions": "at 1, 10, and 100 μM"}, "[3]": {"system": "Male Swiss-Webster mice", "assay": "MPTP-induced neurotoxicity in mice: striatal dopamine, DOPAC, HVA", "assay_type": "in vivo, mouse", "conditions": "at 1 week", "protocol": "Methods. Male Swiss-Webster mice (30-35 g:Taconic Farms, Germantown, N.Y., U.S.A.) were treated with either normal saline or MPTP hydrochloride (Research Biochemicals, Natick, Mass., U.S.A.). MPTP was administered in 0.1 ml of water at a dose of 10 mg/kg i.p. at 2-h intervals for six doses or 20 mg/kg i.p. at 2-h intervals for four doses. 7-NI (Cookson Chemical Ltd., Southhampton, U.K.) was dissolved in peanut oil (Sigma, St. Louis, Mo., U.S.A.) at a concentration of 5 mg/ml. Mice received doses of 25 or 50 mg/kg per subcutaneous injection. MPTP-treated animals were treated with peanut oil or 7-NI 12 h before the first, at every MPTP injection, and every 8 h for 48 h after MPTP injections. Eleven to 12 animals were used in each group. Animals were killed at 1 week. The two striata were rapidly dissected and placed in chilled 0.1M perchloric acid. Tissue was subsequently sonicated, and aliquots were taken for protein quantification using a fluorometric assay (Beal et al., 1990) J. Neurochem. 55:1327-1339).\n(§1) Dopamine, 3,4-dihydroxyphenlyacetic acid (DOPAC), homovanillic acid (HVA), p-tyrosine, and 3-nitrotyrosine were quantified by HPLC with 16-electrode electrochemical detection (Beal et al. (1990) supra) and are expressed as ng/mg protein (mean±SEM) (FIG. 1). 3-Nitrotyrosine data are expressed as ratios of 3-nitrotyrosine to p-tyrosine to normalize for differing brain concentrations of tyrosine. The statistical significance of differences was determined via one-way ANOVA followed by Fisher PLSD post hoc test to compare group means. All animal use procedures were in strict accordance with the NIH Guide for the Care and Use of Laboratory Animals and were approved by the local Animal Care Committee."}, "[4]": {"target": "dopamine transporter (Mus musculus, UniProt Q61327)", "sequence (Q61327 whole entry)": "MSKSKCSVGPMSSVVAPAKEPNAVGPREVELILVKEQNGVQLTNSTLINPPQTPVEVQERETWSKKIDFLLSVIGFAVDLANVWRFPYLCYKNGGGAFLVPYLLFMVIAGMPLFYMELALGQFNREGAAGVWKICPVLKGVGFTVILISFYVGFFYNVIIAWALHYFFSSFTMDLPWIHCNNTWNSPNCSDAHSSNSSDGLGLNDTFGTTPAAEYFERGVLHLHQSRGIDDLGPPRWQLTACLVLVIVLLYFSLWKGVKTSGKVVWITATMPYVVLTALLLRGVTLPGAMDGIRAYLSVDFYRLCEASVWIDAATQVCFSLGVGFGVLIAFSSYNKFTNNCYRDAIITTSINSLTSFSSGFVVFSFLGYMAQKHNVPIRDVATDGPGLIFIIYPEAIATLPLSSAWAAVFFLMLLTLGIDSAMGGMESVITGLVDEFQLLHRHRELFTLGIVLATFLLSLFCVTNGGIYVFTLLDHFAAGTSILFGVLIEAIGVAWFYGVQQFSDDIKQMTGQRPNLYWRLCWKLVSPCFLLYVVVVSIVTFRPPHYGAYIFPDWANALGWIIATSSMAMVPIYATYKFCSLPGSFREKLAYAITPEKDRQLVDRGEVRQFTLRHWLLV", "conditions": "at 1, 10 and 100 μM; 0.13 μM [3H]-dopamine"}, "[5]": {"conditions": "Babbedge et al. 1993; Moore et al. 1993; cited from earlier work"}, "[6]": {"system": "Male Sprague-Dawley rats", "assay": "Striatal lesions produced by intrastriatal malonate (TTC staining)", "assay_type": "in vivo, rat", "conditions": "7-NI 25 and 50 mg/kg i.p. 0.5 h before malonate", "protocol": "Stereotaxic Lesion Technique. Male Sprague-Dawley rats (Charles River, Cambridge, Mass.) weighing 300-325 g were anesthetized with pentobarbital (50 mg/kg i.p.) and positioned in a David Kopf stereotaxic instrument with the incisor bar set at 3.3 mm below the intermural line. Malonate, NMDA, KA, and AMPA were dissolved in 0.1M phosphate-buffered saline (pH, 7.4). Intrastriatal injections were made with a 10 μl Hamilton syringe fitted with a 30 gauge blunt-tipped needle into the left striatum at the coordinates 0.5 mm anterior bregma, 2.6 mm lateral to the midline and 5 mm ventral to the dura. Injection volumes were 1 μl (3 μmol malonate). […]\nQuantification of Lesion Volume. […] (Bederson et al. (1986) Stroke 17:1304-1308.) The lesioned area (noted by pale staining) was measured on the posterior surface of each section using an Apple Macintosh.COPYRGT. based image analysis system (Sony color video camera, Software: ColorSnap.COPYRGT. (Computer Friends Inc., Portland, Oreg.) and IPLab Spectrum.COPYRGT. (Signal Analytics, Vienna, Va.)). The lesions were evaluated by an experienced histologist, who verified the reliability of the TTC measurements in animals injected with malonate on adjacent sections stained with either TTC or Nissl stain (Schulz et al. (1995) J. Neurochem 64:in press)."}, "[7]": {"system": "Male Swiss-Webster mice", "assay": "3-nitrotyrosine to tyrosine ratio in mouse striatum after MPTP", "assay_type": "in vivo", "conditions": "MPTP 20 mg/kg x4; 7-NI 25 or 50 mg/kg", "protocol": "as §1\nRole of Peroxynitrite in MPTP. To determine whether peroxynitrite plays a role in MPTP neurotoxicity, we therefore measured the ratio of 3-nitrotyrosine to tyrosine in mouse striatum following administration of MPTP."}, "[8]": {"conditions": "Yoshida et al. 1994; cited from earlier work"}}, "data": [{"smiles": "O=[N+]([O-])c1cccc2cn[nH]c12", "note": "[7-NI, 7-nitroindazole]", "values": [{"measurement": "MAO-B activity in forebrain mitochondrial fraction after in vivo treatment", "setting": "[1]", "result": "5.69±0.40 nmol/min/mg of protein"}, {"measurement": "inhibition of MAO-B activity in vitro", "setting": "[2]", "result": "did not inhibit"}, {"measurement": "striatal dopamine, % of control values", "setting": "[3]; MPTP 10 mg/kg i.p. x6 at 2-h intervals, 7-NI 50 mg/kg s.c.", "result": "92 % of control values"}, {"measurement": "protection against MPTP-induced depletions of dopamine, HVA and DOPAC", "setting": "[3]; MPTP 20 mg/kg i.p. x4, 7-NI 50 mg/kg", "result": "almost complete protection"}, {"measurement": "inhibition of [3H]dopamine uptake into synaptosomes", "setting": "[4]", "result": "did not inhibit"}, {"measurement": "effect on blood pressure in vivo", "setting": "[5]", "result": "no effect"}, {"measurement": "striatal lesion produced by 3 μmol malonate", "setting": "[6]", "result": "significantly and dose dependently attenuated"}, {"measurement": "MPTP-induced increase of 3-nitrotyrosine to tyrosine ratio in striatum", "setting": "[7]", "result": "significantly attenuated"}, {"measurement": "efficacy against focal ischemic lesions in vivo", "setting": "[8]", "result": "efficacious"}]}]}
